{"source": "patent US4416817A", "about": "“3-Methoxy-2-oxoazetidine derivatives and their production” (Takeda Chemical Industries, Ltd., priority 1979, dated 1983)", "assay_in_all_cases": "Antimicrobial spectrum, minimum inhibitory concentration", "format_in_all_cases": "cell-based", "key": {"Candida albicans TA": {"test_system": "Candida albicans TA", "conditions": "medium TSA", "source_text": "(§1) TSA = Trypticase soy agar [Baltimore Biologicals\n(§2) BTSA = Blood trypticase soy agar"}, "[1]": {"test_system": "Corynebacterium diphtheriae Toronto", "conditions": "medium B-TSA", "source_text": "as §1, §2"}, "[2]": {"test_system": "Enterobacter cloacae IFO 12937", "conditions": "IFO12937, medium TSA", "source_text": "as §1, §2"}, "[3]": {"test_system": "Escherichia coli NIHJ JC-2", "conditions": "NIHJJC2, medium TSA", "source_text": "as §1, §2"}, "Escherichia coli O-111": {"test_system": "Escherichia coli O-111", "conditions": "O111, medium TSA", "source_text": "as §1, §2"}, "Klebsiella pneumoniae DT": {"test_system": "Klebsiella pneumoniae DT", "conditions": "medium TSA", "source_text": "as §1, §2"}, "[4]": {"test_system": "Proteus mirabilis IFO 3849", "conditions": "IFO3849, medium TSA", "source_text": "as §1, §2"}, "[5]": {"test_system": "Proteus vulgaris IFO 3988", "conditions": "IFO3988, medium TSA", "source_text": "as §1, §2"}, "[6]": {"test_system": "Pseudomonas aeruginosa U 31", "conditions": "U31, medium TSA", "source_text": "as §1, §2"}, "[7]": {"test_system": "Pseudomonas morganii IFO 3168", "conditions": "IFO3168, medium TSA", "source_text": "as §1, §2"}, "[8]": {"test_system": "Serratia marcescens IFO 12648", "conditions": "IFO12648, medium TSA", "source_text": "as §1, §2"}, "[9]": {"test_system": "Staphylococcus aureus FDA209P", "conditions": "medium TSA (Trypticase soy agar)", "source_text": "as §1, §2"}, "[10]": {"test_system": "Streptococcus pyogenes E-14", "conditions": "E14, medium B-TSA (Blood trypticase soy agar)", "source_text": "as §1, §2"}, "[11]": {"test_system": "Streptococcus pyogenes S-8", "conditions": "S8, medium B-TSA", "source_text": "as §1, §2"}}}
{"smiles": "CCN1CCN(C(=O)N[C@@H](C(=O)NC2(OC)CN(S(=O)(=O)O)C2=O)c2ccccc2)C(=O)C1=O", "note": "(single isomer, unassigned) [Compound, sodium 3-[D(-)-2-(4-ethyl-2,3-dioxo-1-piperazinocarboxamido)phenylacetamido]-3-methoxy-2-oxoazetidine-1-sulfonate]", "values": [{"measurement": "MIC", "setting": "Candida albicans TA", "value": "> 100", "unit": "µg/mL"}, {"measurement": "MIC", "setting": "[1]", "value": 50, "unit": "µg/mL"}, {"measurement": "MIC", "setting": "[2]", "value": "> 100", "unit": "µg/mL"}, {"measurement": "MIC", "setting": "[3]", "value": 50, "unit": "µg/mL"}, {"measurement": "MIC", "setting": "Escherichia coli O-111", "value": 12.5, "unit": "µg/mL"}, {"measurement": "MIC", "setting": "Klebsiella pneumoniae DT", "value": 12.5, "unit": "µg/mL"}, {"measurement": "MIC", "setting": "[4]", "value": 50, "unit": "µg/mL"}, {"measurement": "MIC", "setting": "[5]", "value": 12.5, "unit": "µg/mL"}, {"measurement": "MIC", "setting": "[6]", "value": "> 100", "unit": "µg/mL"}, {"measurement": "MIC", "setting": "[7]", "value": "> 100", "unit": "µg/mL"}, {"measurement": "MIC", "setting": "[8]", "value": 50, "unit": "µg/mL"}, {"measurement": "MIC", "setting": "[9]", "value": 100, "unit": "µg/mL"}, {"measurement": "MIC", "setting": "[10]", "value": 50, "unit": "µg/mL"}, {"measurement": "MIC", "setting": "[11]", "value": 50, "unit": "µg/mL"}]}
